Reference: ChEMBL document CHEMBL3797144, “2,8-Diazaspiro[4.5]decan-8-yl)pyrimidin-4-amine potent CCR4 antagonists capable of inducing receptor endocytosis” (Eur J Med Chem, 2016)
≈ marks a conversion by molar mass, not a printed value.

Columns and labels:
[1] = molecular target: T1, C-C chemokine receptor type 4 (Homo sapiens, UniProt P51679); experiment: Displacement of [125I]-TARC from human recombinant CCR4 expressed in CHO cell membranes by scintillation counting method
T1 sequence (P51679 whole entry): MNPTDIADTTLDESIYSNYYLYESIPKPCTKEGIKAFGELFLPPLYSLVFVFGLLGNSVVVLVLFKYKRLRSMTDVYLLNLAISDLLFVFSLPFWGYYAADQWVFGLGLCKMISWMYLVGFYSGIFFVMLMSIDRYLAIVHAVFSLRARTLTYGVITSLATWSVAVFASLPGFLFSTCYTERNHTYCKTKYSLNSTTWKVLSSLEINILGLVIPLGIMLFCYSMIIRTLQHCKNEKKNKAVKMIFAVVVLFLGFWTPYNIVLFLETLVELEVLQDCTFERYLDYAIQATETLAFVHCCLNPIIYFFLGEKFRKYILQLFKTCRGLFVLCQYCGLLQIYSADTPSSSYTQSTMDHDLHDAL

[2] = Kinetic solubility of the compound by chemiluminescent nitrogen detection assay; type: physicochemical; settings: read-out: Kinetic_solubility
[3] = molecular target: T1, C-C chemokine receptor type 4; experiment: (§1) Induction of CCR4 internalisation in human HUT78 cells after 30 mins by flow cytometry; type: functional, cell-based
[4] = molecular target: T2, C-C chemokine receptor type 4 (Homo sapiens) (UniProt P51679); experiment: as §1; type: functional, cell-based
T2 sequence (whole entry): T1 sequence (P51679 whole entry)

[5] = molecular target: T1, C-C chemokine receptor type 4; experiment: Antagonist activity at CCR4 in human PBMC assessed as inhibition of actin polymerization by flow cytometry; settings: read-out: pA2 (converted)
[6] = molecular target: T1, C-C chemokine receptor type 4; experiment: Antagonist activity at human CCR4 expressed in CHO cells by [35S]GTPgammaS assay; type: functional, cell-based
[7] = molecular target: T2, C-C chemokine receptor type 4 (Homo sapiens); experiment: Induction of CCR4 internalisation in human HUT78 cells at 10 nM after 30 mins by flow cytometry; type: functional, cell-based
Rattus norvegicus = experiment: Clearance in rat at 1 mg/kg relative to liver blood flow; type: ADME, organism-based; settings: in vivo
[8] = Clearance in rat at 1 mg/kg; type: ADME, organism-based; settings: in vivo
[9] = Volume of distribution in rat at 1 mg/kg; type: ADME, organism-based; settings: in vivo
[10] = Half life in rat at 1 mg/kg; type: ADME, organism-based; settings: in vivo
[11] = Plasma protein binding in human; type: ADME, cell-free; settings: read-out: PPB (converted)

O=C(C1CCCNC1)N1CCC2(CCN(c3nccc(NCc4ccc(Cl)cc4Cl)n3)CC2)C1 (racemic)
Ki [1]: 50.1 nM | solubility kinetic [2]: 186 µg/mL (≈ 369 µM)

COc1cc2nc(N3CCC(N(C)C(=O)[C@H]4CCCN4)CC3)nc(Nc3ccc(Cl)cc3F)c2cc1OC
EC50 [3]: 398 nM

Cl.Cl.Clc1ccc(CNc2ccnc(N3CCC4(CCNC4)CC3)n2)c(Cl)c1
Ki [1]: 316 nM | solubility kinetic [2]: 144 µg/mL

Clc1ccc(CNc2ccnc(N3CCC4(CCN(CC5CCCCN5)C4)CC3)n2)c(Cl)c1 (racemic)
Ki [1]: 2.51 nM | solubility kinetic [2]: 182 µg/mL (≈ 372 µM)

O=C([C@@H]1CCCCN1)N1CCC2(CCN(c3nccc(NCc4ccc(Cl)cc4Cl)n3)CC2)C1
Ki [1]: 20 nM | solubility kinetic [2]: 170 µg/mL (≈ 338 µM)

O=C([C@H]1CCCN1)N1CCC2(CCN(c3nccc(NCc4ccc(Cl)cc4Cl)n3)CC2)C1
Ki [1]: 15.8 nM | solubility kinetic [2]: 180 µg/mL (≈ 368 µM)

CN(Cc1ccc(Cl)cc1Cl)c1ccnc(N2CCC3(CCN(CC4CCCN4)C3)CC2)n1 (racemic)
Activity [4]: 74% | EC50 [3]: 158 nM | Ki [1]: 1 nM | Kb [5]: 1000 nM | solubility kinetic [2]: 141 µg/mL (≈ 288 µM) | IC50 [6]: 7.94 nM

O=C([C@H]1CCCCN1)N1CCC2(CCN(c3nccc(NCc4ccc(Cl)cc4Cl)n3)CC2)C1
Ki [1]: 25.1 nM | solubility kinetic [2]: 172 µg/mL (≈ 342 µM)

C[N+]1(C2CCN(c3ncc(-c4ccc(F)cc4F)c(NCc4ccc(F)cc4F)n3)CC2)CCCCC1
Activity [7]: 50%

Fc1ccc(CNc2ccnc(N3CCC4(CCN(CC5CCCN5)C4)CC3)n2)c(F)c1 (racemic)
Activity [4]: 62% | EC50 [3]: 15.8 nM | Ki [1]: 3.16 nM | solubility kinetic [2]: 160 µg/mL (≈ 362 µM) | IC50 [6]: 7.94 nM

O=C(C1COCCN1)N1CCC2(CCN(c3nccc(NCc4ccc(Cl)cc4Cl)n3)CC2)C1 (racemic)
solubility kinetic [2]: 233 µg/mL (≈ 461 µM)

O=C([C@@H]1CCCN1)N1CCC2(CCN(c3nccc(NCc4ccc(Cl)cc4Cl)n3)CC2)C1
Ki [1]: 100 nM | solubility kinetic [2]: 165 µg/mL (≈ 337 µM)

Clc1ccc(CNc2ccnc(N3CCC4(CCN(C[C@@H]5CCCN5)C4)CC3)n2)c(Cl)c1
Activity [4]: 56% | EC50 [3]: 12.6 nM | Ki [1]: 3.98 nM | solubility kinetic [2]: 56 µg/mL (≈ 118 µM)

O=C(c1ccccn1)N1CCC2(CCN(c3nccc(NCc4ccc(Cl)cc4Cl)n3)CC2)C1
Ki [1]: 100 nM | solubility kinetic [2]: 17 µg/mL (≈ 34.2 µM)

O=C(C1CCNC1)N1CCC2(CCN(c3nccc(NCc4ccc(Cl)cc4Cl)n3)CC2)C1.O=C(O)C(F)(F)F (racemic)
Ki [1]: 50.1 nM | solubility kinetic [2]: 339 µg/mL

O=C(C1CCCN1)N1CCC2(CCN(c3nccc(NCc4ccc(Cl)cc4Cl)n3)CC2)C1 (racemic)
Ki [1]: 25.1 nM | solubility kinetic [2]: 79 µg/mL (≈ 161 µM)

Clc1ccc(CNc2ccnc(N3CCC4(CCN(CC5CCCN5)C4)CC3)n2)c(Cl)c1 (racemic)
CL (Rattus norvegicus): 18% | Ki [1]: 1.58 nM | clearance [8]: 15 mL/min/kg | Vd [9]: 5 L/kg | half-life [10]: 4 h | Kb [5]: 200 nM | solubility kinetic [2]: 270 µg/mL (≈ 568 µM) | fraction unbound [11]: 0.068 | IC50 [6]: 7.94 nM

O=C(C1CCCCC1)N1CCC2(CCN(c3nccc(NCc4ccc(Cl)cc4Cl)n3)CC2)C1
Ki [1]: 631 nM | solubility kinetic [2]: 3 µg/mL (≈ 5.97 µM)

O=C(C1CCCN1)N1CCC2(CCN(c3nccc(NCc4ccc(F)cc4F)n3)CC2)C1 (racemic)
Ki [1]: 25.1 nM | solubility kinetic [2]: 175 µg/mL (≈ 383 µM)

O=C([C@H]1CCCCN1)N1CCN(c2nccc(NCc3ccc(Cl)cc3Cl)n2)CC1
Ki [1]: 2.51 nM | Kb [5]: 174 nM | solubility kinetic [2]: 140 µg/mL (≈ 312 µM) | IC50 [6]: 7.94 nM

CN(Cc1ccc(Cl)cc1Cl)c1ccnc(N2CCC3(CCN(C(=O)C4CCCN4)C3)CC2)n1 (racemic)
Ki [1]: 25.1 nM | solubility kinetic [2]: 190 µg/mL (≈ 377 µM)

CNCC(=O)N1CCC2(CCN(c3nccc(NCc4ccc(Cl)cc4Cl)n3)CC2)C1.O=C(O)C(F)(F)F.O=C(O)C(F)(F)F
Ki [1]: 126 nM | solubility kinetic [2]: 138 µg/mL

Clc1ccc(CNc2ccnc(N3CCC4(CCN(C[C@H]5CCCN5)C4)CC3)n2)c(Cl)c1
Activity [4]: 64% | EC50 [3]: 6.31 nM | Ki [1]: 5.01 nM | solubility kinetic [2]: 16 µg/mL (≈ 33.7 µM)
